Results taken from article PMC6424980, “Distinct G protein-coupled receptor phosphorylation motifs modulate arrestin affinity and activation and global conformation” (Nature Communications, 2019).
Non-standard residues stand in square brackets, D forms with d. No end group written: not given here. pS = N[C@@H](COP(=O)(O)O)C(=O)O

What was measured:
[1] = target: T1, arrestin-1 (monomerizing mutant F85A, F197A) (Bos taurus, UniProt P08168, F197A/F85A); assay: Fluorescence anisotropy binding of fluorescein-labelled peptides to arrestin-1; parameters: species or system bovine
T1 construct: made in house; host or cells: E. coli NiCo (DE3) cells (New England Biolabs), pET-15b vector
Description: (§1) Synthesized cDNAs of bovine arrestin-1, human arrestin-2 and human arrestin-3 were ordered from Genewiz, amplified by PCR and cloned (Supplementary Information Table 5) into the pET-15b vector (Novagen), using the Gibson Assembly protocol. The constructs contained an N-terminal hexa histidine tag linked by a linker that contained a Tobacco Etch Virus cleavage site (TEV; […]). PCR was used to introduce the monomerizing arrestin-1 mutations (F85A, F197A)[58]. Note that this mutant was employed for fluorescence anisotropy, trypsin digestion, and NMR experiments. Wild-type arrestin-2 and -3 were used for fluorescence anisotropy and trypsin digestion experiments. […] The arrestin-1 in this construct had the wild-type sequence. Note that this construct differs slightly from that previously published[59],[60] and was optimized for purification. We verified the functionality of this fusion construct using the standard centrifugal pull-down assay using phosphorylated rhodopsin in native ROS membranes.
0.1–0.2 mg of lyophilized peptide was dissolved in 50 µl of 50 mM phosphate-buffered saline (PBS) buffer at pH 7.0, and then two molar equivalents of fluorescein-5-maleimide dye stock dissolved in dimethylsulfoxid was added. The reaction was carried out at RT in the dark. After 1 h the reaction was topped up with 1 ml of ice-cold 100% acetone and stored until the next day at −20 °C. The precipitated peptide was centrifuged (13,000 × g) for 10 min. The labeled and precipitated peptide was sedimented, and the supernatant was removed. The peptide was resuspended again in ice-cold acetone, stored for 1 h at −20 °C and centrifuged (13,000 × g) for 10 min. […] The precipitated peptide was dried at RT in the dark. It was dissolved in 50 µl of 20 mM Bis-Tris propane pH 7.0 and 150 mM NaCl and its concentration was determined by absorbance. A molar extinction coefficient of 70,000/M/cm at pH 7.0 was assumed for calculating the concentration of the labeled peptide stock.
An 11-step serial dilution series of arrestin in 20 mM Bis-Tris propane pH 7.0, 150 mM NaCl, 8 mM 2‑mercaptoethanol, 2% (w/w) BSA, 0.02% (v/v) Tween-20 was prepared and transferred to a black high-bottom 384-well plate (Greiner). As control for free peptide, a position with only buffer was included. The peptide was added at a final concentration of 20 nM to each well. The plate was closed by a clear cover and vortexed for 15 s. Afterwards it was centrifuged (800 × g) for 2 min and stored at RT for 20 min. The reading was performed by default settings of PHERAstar plate-reader (BMG Labtech) and excitation‑/emission-wavelengths of 485 nm (12 nm bandpass)/520 nm (30 nm bandpass) were used. The analysis was performed using Origin2016 (Microcal Inc) software by fitting the data to a one-to-one binding model:2 r=R0+△R*P/Kd+P, where r stands for anisotropy, R0 stands for anisotropy of the ligand, ΔR stands for anisotropy of the complex minus anisotropy of the ligand, P stands for the concentration of protein, and Kd stands for the dissociation constant of the ligand.

[2] = system: arrestin-1 mutants I72B and F197NBD with nonphosphorylated light-activated rhodopsin in ROS membranes; assay: Ternary complex formation (site-directed fluorescence and centrifugal pull-down); assay type: biochemical, bovine; conditions: 10 µM rhodopsin in ROS, 1 µM arrestin-1 I72B or F197NBD, 100 µM peptide, pH 7
Description: Recombinant bovine arrestin-1 cloned into the pET15b vector was expressed and purified as described. The basic construct was a modified wild-type sequence that contained no native cysteines (C63A, C128S and C143A) nor tryptophans (W194F). Single cysteine residues were introduced by PCR at sites 72 or 197 as previously described. The I72C mutant was labeled with monobromobimane (Thermo Fisher) and is referred to as I72B. The F197C mutant was labeled with N,N′-Dimethyl-N-(Iodoacetyl)-N′-(7-Nitrobenz-2-Oxa-1,3-Diazol-4-yl)Ethylenediamine (IANBD amide, Thermo Fisher) and is referred to as F197NBD. Labeling was carried out as previously described[43],[61]. Both labeled mutants were assessed to be functionally similar to wild-type arrestin-1 using the Extra Meta II assay, which determines the ability of arrestin-1 to bind and stabilize the active Meta II form of rhodopsin[64].
Under dim-red light, samples were prepared that contained nonphosphorylated rhodopsin (10 µM) in ROS membranes, 1 µM arrestin-1 I72B or F197NBD, ±100 µM peptide in 50 mM HEPES, 130 mM NaCl, pH 7 (150 or 200 µl sample volume). One hundred microliters of the sample was used for fluorescence measurements, and the remainder was used for the centrifugal pull-down assay (50 µl per assay). Steady-state fluorescence measurements were performed using a SPEX Fluorolog (1680) instrument in front-face mode. Bimane fluorescence was recorded using an excitation wavelength of 400 nm and emission 424–600 nm, and NBD fluorescence was recorded using an excitation wavelength of 500 nm and emission 524–660 (2 nm step size, 0.5 s integration per point). Excitation slits were narrowed to 0.1−0.2 nm to minimize light-activation of rhodopsin, and emission slits were set at 4 nm. Pull-down analysis was performed by centrifuging samples at 16,000 × g for 10 min at 20 °C. Selected samples were light activated (>495 nm) for 15 s prior to centrifugation (appr. 60 s delay time). Following centrifugation, the supernatants were removed, and the pellets were solubilized in loading buffer containing 2% SDS and subjected to SDS PAGE. Bands were visualized using Coomassie Brilliant Blue.

arrestin-2 = assay: Fluorescence anisotropy binding of fluorescein-labelled peptides to arrestin-2; parameters: species or system human
Description: as §1
0.1–0.2 mg of lyophilized peptide was dissolved in 50 µl of 50 mM phosphate-buffered saline (PBS) buffer at pH 7.0, and then two molar equivalents of fluorescein-5-maleimide dye stock dissolved in dimethylsulfoxid was added. The reaction was carried out at RT in the dark. […] It was dissolved in 50 µl of 20 mM Bis-Tris propane pH 7.0 and 150 mM NaCl and its concentration was determined by absorbance. […]

arrestin-1 (F85A, F197A) = assay: Limited trypsin digestion of arrestin-1 in presence of peptide; assay type: biochemical, bovine; conditions: arrestin:peptide 1:1.2, 35 °C, SDS PAGE
Description: as §1
Arrestin (60 µg) was mixed at a 1 to 1.2 molar ratio with peptide and preincubated at RT for 5 min before 1 μl of 0.15 mg/ml trypsin stock was added. The enzymatic digestion was carried out at 35 °C (20 mM Bis-Tris propane pH 7.0, 150 mM NaCl, 10 mM 2‑Mercaptoethanol and 2 mM EDTA). At certain time points (5, 15, 30, 60, 90 min), 5 μl aliquots were quenched with heat incubation in the presence of 20 μl SDS loading buffer (95 °C, 5 min) and then subjected to SDS PAGE. Bands were visualized with InstantBlue (Expedeon).

[3] = target: T2, bovine arrestin-1 with the monomerizing mutations F85A, F197A (bovine, UniProt P08168 2-404, F85A | F197A); assay: fluorescence polarisation; fluorescence anisotropy; 20 nM fluorescently labelled peptide, 11-step serial dilution of arrestin; 20 mM Bis-Tris propane pH 7.0, 150 mM NaCl, 8 mM 2-mercaptoethanol, 2% BSA, 0.02% Tween-20; RT; one-to-one binding model; conditions: both partners purified
T2 construct: arrestin-1, bovine, synthesized cDNA in pET-15b; monomerizing mutations F85A, F197A; Used for fluorescence anisotropy, trypsin digestion and NMR (2H,15N,13C-labelled for NMR); residues of the linker may remain after cleavage (surmised); source: E. coli NiCo (DE3), purified (Ni-NTA, TEV, SQ column); not shown: His6, N-terminal, cleaved
T2 sequence (P08168 2-404 F85A/F197A): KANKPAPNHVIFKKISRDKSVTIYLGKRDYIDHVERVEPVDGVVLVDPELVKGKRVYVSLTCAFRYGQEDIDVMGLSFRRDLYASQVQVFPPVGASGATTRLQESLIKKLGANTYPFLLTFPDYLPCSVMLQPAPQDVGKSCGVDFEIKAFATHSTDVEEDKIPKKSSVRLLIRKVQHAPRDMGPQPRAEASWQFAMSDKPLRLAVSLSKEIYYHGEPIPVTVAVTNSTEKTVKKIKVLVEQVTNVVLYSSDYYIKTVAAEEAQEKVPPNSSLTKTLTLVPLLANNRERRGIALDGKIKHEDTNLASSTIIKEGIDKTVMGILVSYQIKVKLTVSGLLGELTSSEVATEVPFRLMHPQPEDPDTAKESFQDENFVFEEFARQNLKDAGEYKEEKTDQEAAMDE

T1 sequence (P08168 whole entry F85A/F197A): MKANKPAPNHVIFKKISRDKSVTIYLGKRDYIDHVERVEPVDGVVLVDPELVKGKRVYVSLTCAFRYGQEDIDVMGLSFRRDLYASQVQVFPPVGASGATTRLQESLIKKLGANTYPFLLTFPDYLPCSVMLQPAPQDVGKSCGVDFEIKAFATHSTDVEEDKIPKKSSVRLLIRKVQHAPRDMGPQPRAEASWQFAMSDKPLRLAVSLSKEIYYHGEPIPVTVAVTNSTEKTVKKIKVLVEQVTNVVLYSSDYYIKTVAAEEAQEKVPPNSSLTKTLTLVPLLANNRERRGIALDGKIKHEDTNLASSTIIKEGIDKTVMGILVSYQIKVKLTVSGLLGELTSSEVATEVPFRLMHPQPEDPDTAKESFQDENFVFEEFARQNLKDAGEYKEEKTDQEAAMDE

Kd [3] [µM] | Molecule | binding to arrestin-1 (in words) [1] | ternary complex formation (arrestin-1, nonphosphorylated rhodopsin, peptide) [2] | also measured
 | CDDEASTTVSKTETSQVAPA [3Pe, tri-phosphorylated rhodopsin C-terminus peptide lacking one or both key sites] | significant loss of affinity | very little arrestin binding | 
 | CDDEASTTVSKTETSQVAPA [3Pf] | significant loss of arrestin-1 affinity | less ternary complex formation | binding to arrestin-2 (in words) (arrestin-2): bound well; limited trypsin digest pattern of arrestin-1 (conformational change, C-tail displacement) (arrestin-1 (F85A, F197A)): notable exception
 | CDDEASTTVSKTETSQVAPA [3Pg, tri-phosphorylated rhodopsin C-terminus peptide lacking one key site, containing pT335 and pS338] | significant loss of affinity | moderate ternary complex formation | 
 | CDDEASTTVSKTETSQVAPA [3Ph, tri-phosphorylated rhodopsin C-terminus peptide lacking one or both key sites] | significant loss of affinity | very little arrestin binding | 
 | CDDEASTTVSKTETSQVAPA [3Pi, tri-phosphorylated rhodopsin C-terminus peptide lacking one key site, containing pT335 and pS338] | significant loss of affinity | moderate ternary complex formation | 
 | CDDEASTTVSKTETSQVAPA [3Pj, tri-phosphorylated rhodopsin C-terminus peptide lacking one or both key sites] | significant loss of affinity | very little arrestin binding | 
 | CDDEASTTVSKTETSQVAPA [3Pk, tri-phosphorylated rhodopsin C-terminus peptide lacking one or both key sites] | significant loss of affinity | very little arrestin binding | 
< 250 | C(fluorescein‑5‑maleimide)DDEASTTVSKTET[pS]QVAPA (not fully specified (residue 12); also: third phospho-Ser/Thr site not placed) [tri-phosphorylated peptide 3Pb of the bovine rhodopsin C-terminus] |  |  | 
< 250 | C(fluorescein‑5‑maleimide)DDEASTTVSKTET[pS]QVAPA (not fully specified (residue 12); also: two further phospho-Ser/Thr sites not placed) [phosphopeptide 4P of the bovine rhodopsin C-terminus] |  |  | 
< 250 | C(fluorescein‑5‑maleimide)DDEASTTVSKTET[pS]QVAPA (not fully specified (residue 12); also: third phospho-Ser/Thr site not placed) [tri-phosphorylated peptide 3Pa of the bovine rhodopsin C-terminus] |  |  | 
< 250 | C(fluorescein‑5‑maleimide)DDEASTTVSKTET[pS]QVAPA (not fully specified (residue 12); also: third phospho-Ser/Thr site not placed) [tri-phosphorylated peptide 3Pd of the bovine rhodopsin C-terminus] |  |  | 
< 250 | C(fluorescein‑5‑maleimide)DDEASTTVSKTET[pS]QVAPA (not fully specified (residue 12); also: third phospho-Ser/Thr site not placed) [tri-phosphorylated peptide 3Pc of the bovine rhodopsin C-terminus] |  |  | 
< 250 | C(fluorescein‑5‑maleimide)DDEASTTVSKTET[pS]QVAPA (not fully specified (residue 12); also: four further phospho-Ser/Thr sites not placed) [phosphopeptide 6P of the bovine rhodopsin C-terminus] |  |  | 
